Results from paper PMC3866151, “Phenylthiophenecarboxamide Antagonists of the Olfactory Receptor Co-Receptor Subunit from a Mosquito” (PLoS ONE, 2013).
Like-named read-outs stand apart in the source and are kept apart here.

Key:
Format in all cases: cell-based
Cqui\Orco+Cqui\Or21 [1] = biological target: T1, Cqui\Orco+Cqui\Or21 (Culex quinquefasciatus, UniProt Q309I4); assay: Agonist activation (concentration-response) of the OR expressed in Xenopus oocytes, two-electrode voltage clamp
Experimental: (§1) Oocytes were surgically removed from mature Xenopus laevis frogs. Follicle cells were removed by treatment with Collagenase B (Boehringer Mannhem) for 2 hours at room temperature. Capped cRNA encoding each OR subunit was generated using mMessage mMachine kits (Ambion). For heteromeric ORs, 25 ng of cRNA encoding each OR subunit was injected into Stage V-VI Xenopus oocytes. For expression of Orco alone, 50 ng of cRNA was injected. Oocytes were incubated at 18°C in Barth's saline (in mM: 88 NaCl, 1 KCl, 2.4 NaHCO3, 0.3 CaNO3, 0.41 CaCl2, 0.82 MgSO4, 15 HEPES, pH 7.6, and 150 µg/ml ceftazidime) for 2–5 days prior to electrophysiological recording.
(§2) Odorant and Orco ligand induced currents were recorded under two-electrode voltage clamp, using an automated parallel electrophysiology system (OpusExpress 6000A; Molecular Devices). Oocytes were perfused with ND96 (in mM: 96 NaCl, 2 KCl, 1 CaCl2, 1 MgCl2, 5 HEPES, pH 7.5). Orco ligands were prepared as 50 or 100 mM stock solutions in DMSO and then diluted into ND96 on the day of the experiment. Unless otherwise noted, applications were for 60 sec at a flow rate of 1.0 ml/min, with extensive washing in ND96 at 4.6 ml/min between applications. For the concentration-response protocol in Figure 1d , applications were for 20 sec at a flow rate of 1.65 ml/min. Micropipettes were filled with 3 M KCl and had resistances of 0.2–2.0 MΩ. The holding potential was -70 mV. Current responses, filtered (4-pole, Bessel, low pass) at 20 Hz (-3 db) and sampled at 100 Hz, were captured and stored using OpusXpress 1.1 software (Molecular Devices).
(§3) Initial analysis of electrophysiological data was done using Clampfit 9.1 software (Molecular Devices). Curve fitting and statistical analyses were done using Prism 5 (Graphpad). Concentration-response data were fit to the equation: I = Imax/(1+(EC50/X)^n) where I represents the current response at a given concentration of odorant, X; Imax is the maximal response; EC50 is the concentration of agonist yielding a half maximal response; n is the apparent Hill coefficient. Concentration-inhibition data were fit to the equation: I = Imax / (1+ (X/IC50)^n) where I represents the current response at a given concentration of inhibitor, X; Imax is the maximal response in the absence of inhibitor; IC50 is the concentration of inhibitor present that still allows a half maximal response from odorant; n is the apparent Hill coefficient. Statistical significance was assessed using a two-tailed unpaired t test, an F test, or a one-way analysis of variance followed by the Dunnett's post-test, as appropriate.

Cqui\Orco+Cqui\Or21 [2] = biological target: T1, Cqui\Orco+Cqui\Or21; assay: Antagonism of Orco agonist (OLC12) activation of the OR expressed in Xenopus oocytes, two-electrode voltage clamp; conditions: for Mechanism of inhibition of Orco agonist (OLC12) activation: OLC12 raised from 3 µM to 30 µM; for IC50: read-out: IC50 for inhibition of Cqui\Orco+Cqui\Or21 activation by OLC12; for Inhibition of the OLC12 response compared with OX1a (screen): 100 µM compound; for Inhibition of the OLC12 response compared with OX1a (screen) / Antagonist activity compared with the parent analog or OX1a (second screen): 3 µM OLC12; for Antagonist activity compared with the parent analog or OX1a (second screen): 30 µM compound
Experimental: as §1, §2
(§4) To screen for antagonist activity, oocytes were exposed to 60 sec applications of OLC12 with 4 min washes between applications (Figures 1B, 3, 4 and 5A,C,E) or 60 sec applications of odorant with 20 min washes between applications (Figures 1C,D and 5B,D,F). Oocytes were then exposed to a 90 sec application of antagonist candidate, immediately followed by a 60 sec co-application of antagonist candidate and OLC12 or odorant. Oocytes were then exposed to a final 60 sec application of OLC12 or odorant. The current response in the presence of antagonist candidate was compared to the preceding responses to OLC12 or odorant alone.
as §3

Cqui\Orco+Cqui\Or21 [3] = biological target: T1, Cqui\Orco+Cqui\Or21; assay: Inhibition of odorant (3-methylindole) activation of the OR expressed in Xenopus oocytes, two-electrode voltage clamp; conditions: for IC50: read-out: IC50 for inhibition of responses to 3MI; for Mechanism of inhibition of odorant activation: 10 nM, 100 nM, 1 µM 3-methylindole
Experimental: as §1, §2, §4, §3

[4] = activated by 3 µM OLC12, Xenopus oocytes

T1 sequence (Q309I4 entry or part of it): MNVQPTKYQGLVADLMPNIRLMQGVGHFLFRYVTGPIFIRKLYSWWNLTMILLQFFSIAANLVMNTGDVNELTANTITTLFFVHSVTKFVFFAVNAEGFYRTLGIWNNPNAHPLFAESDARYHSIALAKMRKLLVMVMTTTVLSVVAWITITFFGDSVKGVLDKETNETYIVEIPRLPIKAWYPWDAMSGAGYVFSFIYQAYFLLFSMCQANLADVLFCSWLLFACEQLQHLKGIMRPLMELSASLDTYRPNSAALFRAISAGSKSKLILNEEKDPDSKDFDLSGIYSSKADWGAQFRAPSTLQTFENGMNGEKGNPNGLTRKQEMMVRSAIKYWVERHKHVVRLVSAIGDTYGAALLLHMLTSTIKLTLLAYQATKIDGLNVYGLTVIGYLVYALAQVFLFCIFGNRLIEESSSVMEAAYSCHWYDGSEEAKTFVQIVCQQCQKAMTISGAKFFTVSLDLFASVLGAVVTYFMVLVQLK

SMILES	nH (apparent Hill coefficient of concentration-inhibition curve) (Cqui\Orco+Cqui\Or21 [2]; [4])	IC50 (Cqui\Orco+Cqui\Or21 [2]; [4])	Inhibition of the OLC12 response compared with OX1a (screen) (Cqui\Orco+Cqui\Or21 [2])	further results
Cc1c[nH]c2ccccc12 [Compound 3MI, 3-methylindole]				EC50 (Cqui\Orco+Cqui\Or21 [1]; 3MI alone, read-out: EC50 for activation of Cqui\Orco+Cqui\Or21 by 3MI): 0.032 ± 0.007 µM; EC50 (Cqui\Orco+Cqui\Or21 [1]; in presence of 50 µM OX1a, read-out: EC50 for 3MI activation of Cqui\Orco+Cqui\Or21): 0.037 ± 0.007 µM
CCn1c(SCC(=O)Nc2ccc(C(C)C)cc2)nnc1-c1ccncc1 [OLC12, 2-((4-ethyl-5-(4-pyridinyl)-4H-1,2,4-triazol-3-yl)sulfanyl)-N-(4-isopropylphenyl)-acetamide]				nH for OLC12 activation of Cqui\Orco+Cqui\Or21 (Cqui\Orco+Cqui\Or21 [1]): 1.42 ± 0.32; EC50 (Cqui\Orco+Cqui\Or21 [1]; read-out: EC50 for OLC12 activation of Cqui\Orco+Cqui\Or21): 6.6 ± 1.4 µM
Cc1ccc(NC(=O)c2cccs2)cc1 [OX1b, N-(4-methylphenyl)-2-thiophenecarboxamide]			significantly improved antagonist activity	
Cc1cccc(NC(=O)c2cccs2)c1 [OX1c, N-(3-methylphenyl)-2-thiophenecarboxamide]			significantly improved antagonist activity	
O=C(Nc1ccc(Br)cc1)c1cccs1 [OX1d, N-(4-bromophenyl)-2-thiophenecarboxamide]			failed to significantly improve antagonist activity	
COc1ccc(NC(=O)c2cccs2)cc1 [OX1e, N-(4-methoxyphenyl)-2-thiophenecarboxamide]			significantly improved antagonist activity	
O=C(Nc1cccc(Br)c1)c1cccs1 [OX1f, N-(3-bromophenyl)-2-thiophenecarboxamide]			significant improvement	
COc1cccc(NC(=O)c2cccs2)c1 [OX1h, N-(3-methoxyphenyl)-2-thiophenecarboxamide]			significantly improved antagonist activity	
Cc1cc(C)c(NC(=O)c2cccs2)c(C)c1 [OX1l, N-mesityl-2-thiophenecarboxamide]	1.5 ± 0.1	3.8 ± 0.3 µM	significantly improved antagonist activity	Mechanism of inhibition of Orco agonist (OLC12) activation (Cqui\Orco+Cqui\Or21 [2]): competitive mechanism; IC50 (Cqui\Orco+Cqui\Or21 [2]; activated by 10 µM OLC12): 8.3 ± 0.5 µM; IC50 (Cqui\Orco+Cqui\Or21 [2]; activated by 30 µM OLC12): 24 ± 3 µM; IC50 (Cqui\Orco+Cqui\Or21 [3]; 10 nM 3MI): 17 ± 1 µM; Mechanism of inhibition of odorant activation (Cqui\Orco+Cqui\Or21 [3]): non-competitive mechanism; IC50 (Cqui\Orco+Cqui\Or21 [3]; 100 nM 3MI): 16 ± 1 µM; IC50 (Cqui\Orco+Cqui\Or21 [3]; 1 µM 3MI): 19 ± 2 µM
Cc1cccc(NC(=O)c2sccc2Cl)c1 [OX1m, 3-chloro-N-(3-methylphenyl)-2-thiophenecarboxamide]			improved antagonist activity	
CCN(C(=O)c1cccs1)c1ccccc1 [OX1n, N-ethyl-N-phenyl-2-thiophenecarboxamide]			improved antagonist activity	
Cc1ccc(NC(=O)c2sccc2Cl)c(C)c1 [OX1o, 3-chloro-N-(2,4-dimethylphenyl)-2-thiophenecarboxamide]	1.1 ± 0.1	5.5 ± 0.7 µM		Antagonist activity compared with the parent analog or OX1a (second screen) (Cqui\Orco+Cqui\Or21 [2]): significant loss of antagonist activity
Cc1cccc(C)c1NC(=O)c1sccc1Cl [OX1p, 3-chloro-N-(2,6-dimethylphenyl)-2-thiophenecarboxamide]	1.2 ± 0.1	7.2 ± 0.6 µM		Antagonist activity compared with the parent analog or OX1a (second screen) (Cqui\Orco+Cqui\Or21 [2]): significant loss of antagonist activity
O=C(Nc1cccc(Cl)c1)c1sccc1Cl [OX1q, 3-chloro-N-(3-chlorophenyl)-2-thiophenecarboxamide]	0.9 ± 0.1	7.8 ± 0.9 µM		Antagonist activity compared with the parent analog or OX1a (second screen) (Cqui\Orco+Cqui\Or21 [2]): well tolerated
CCC(=O)c1ccc(NC(=O)c2cccs2)cc1 [OX1r, N-(4-propionylphenyl)-2-thiophenecarboxamide]				Antagonist activity compared with the parent analog or OX1a (second screen) (Cqui\Orco+Cqui\Or21 [2]): significant loss of antagonist activity
CCCC(=O)c1ccc(NC(=O)c2cccs2)cc1 [OX1s, N-(4-butyrylphenyl)-2-thiophenecarboxamide]				Antagonist activity compared with the parent analog or OX1a (second screen) (Cqui\Orco+Cqui\Or21 [2]): significant loss of antagonist activity
O=C(NC1CCCCC1)c1cccs1 [OX2, N-cyclohexyl-2-thiophenecarboxamide]			failed to significantly improve antagonist activity	
Cc1ccc(CNC(=O)c2cccs2)cc1 [OX3a, N-(4-methylbenzyl)-2-thiophenecarboxamide]	1.0 ± 0.1	1.7 ± 0.2 µM	improved antagonist activity	Mechanism of inhibition of Orco agonist (OLC12) activation (Cqui\Orco+Cqui\Or21 [2]): competitive mechanism; IC50 (Cqui\Orco+Cqui\Or21 [2]; activated by 10 µM OLC12): 12 ± 1 µM; IC50 (Cqui\Orco+Cqui\Or21 [2]; activated by 30 µM OLC12): 28 ± 2 µM; IC50 (Cqui\Orco+Cqui\Or21 [3]; 10 nM 3MI): 2.6 ± 0.3 µM; Mechanism of inhibition of odorant activation (Cqui\Orco+Cqui\Or21 [3]): non-competitive mechanism; IC50 (Cqui\Orco+Cqui\Or21 [3]; 100 nM 3MI): 2.3 ± 0.2 µM; IC50 (Cqui\Orco+Cqui\Or21 [3]; 1 µM 3MI): 1.9 ± 0.1 µM

The next lines start with results.

nH (apparent Hill coefficient of concentration-inhibition curve) (Cqui\Orco+Cqui\Or21 [2]; [4])	IC50 (Cqui\Orco+Cqui\Or21 [2]; [4])	SMILES	Inhibition of the OLC12 response compared with OX1a (screen) (Cqui\Orco+Cqui\Or21 [2])	further results
1.0 ± 0.1	51 ± 6 µM	CCc1ccc(NC(=O)c2cccs2)cc1 [OX1a, N-(4-ethylphenyl)-2-thiophenecarboxamide]		Mechanism of inhibition of Orco agonist (OLC12) activation (Cqui\Orco+Cqui\Or21 [2]): competitive antagonist; IC50 (Cqui\Orco+Cqui\Or21 [3]; 10 nM 3MI): 47 ± 5 µM; Mechanism of inhibition of odorant activation (Cqui\Orco+Cqui\Or21 [3]): non-competitive mechanism; IC50 (Cqui\Orco+Cqui\Or21 [3]; 100 nM 3MI): 42 ± 7 µM; IC50 (Cqui\Orco+Cqui\Or21 [3]; 1 µM 3MI): 50 ± 4 µM; Effect on maximal response to 3-methylindole (Cqui\Orco+Cqui\Or21 [3]; 50 µM OX1a co-applied): significantly reduced
1.0 ± 0.1	13 ± 1 µM	O=C(Nc1cccc(Cl)c1)c1cccs1 [OX1g, N-(3-cholorphenyl)-2-thiophenecarboxamide]	significant improvement	
1.3 ± 0.1	14 ± 1 µM	CC(=O)c1cccc(NC(=O)c2cccs2)c1 [OX1i, N-(3-acetylphenyl)-2-thiophenecarboxamide]	significantly improved antagonist activity	
0.9 ± 0.1	5.4 ± 0.4 µM	CCc1ccccc1NC(=O)c1cccs1 [OX1j, N-(2-ethylphenyl)-2-thiophenecarboxamide]	significantly improved antagonist activity	
0.8 ± 0.1	1.7 ± 0.2 µM	Cc1cccc(NC(=O)c2cccs2)c1C [OX1k, N-(2,3-dimethylphenyl)-2-thiophenecarboxamide]	significantly improved antagonist activity	
1.1 ± 0.1	5.1 ± 0.5 µM	O=C(NCc1ccccc1)c1cccs1 [OX3b, N-benzyl-2-thiophenecarboxamide]		Antagonist activity compared with the parent analog or OX1a (second screen) (Cqui\Orco+Cqui\Or21 [2]): well tolerated
0.9 ± 0.1	2.1 ± 0.3 µM	CCc1ccccc1NC(=O)C=Cc1cccs1 [OX4, N-(2-ethylphenyl)-3-(2-thienyl)-2-propenamide]		Antagonist activity compared with the parent analog or OX1a (second screen) (Cqui\Orco+Cqui\Or21 [2]): well tolerated; Mechanism of inhibition of Orco agonist (OLC12) activation (Cqui\Orco+Cqui\Or21 [2]): competitive mechanism; IC50 (Cqui\Orco+Cqui\Or21 [2]; activated by 10 µM OLC12): 8.8 ± 1.2 µM; IC50 (Cqui\Orco+Cqui\Or21 [2]; activated by 30 µM OLC12): 73 ± 5 µM; IC50 (Cqui\Orco+Cqui\Or21 [3]; 10 nM 3MI): 3.4 ± 0.6 µM; Mechanism of inhibition of odorant activation (Cqui\Orco+Cqui\Or21 [3]): non-competitive mechanism; IC50 (Cqui\Orco+Cqui\Or21 [3]; 100 nM 3MI): 2.7 ± 0.4 µM; IC50 (Cqui\Orco+Cqui\Or21 [3]; 1 µM 3MI): 2.5 ± 0.3 µM
